Data as given in US12545639B2, “3-substituted phenylamidine compounds, preparation and use thereof” (PI INDUSTRIES LTD., priority 2019, dated 2026).

Legend:
Phakopsora pachyrhizi = Phakopsora pachyrhizi test in soybean, preventive, in vivo on plants; conditions: in Glycine max, read-out: Efficacy (% control), disease severity compared to the untreated check
Pyricularia oryzae = test: microbe, parasite or virus in culture; type: cell-based; conditions: 168 h, read-out: control compared to the untreated check (radial growth)
Alternaria solani = Alternaria solani (early blight of tomato/potato) in vitro test, radial growth on potato dextrose agar; type: cell-based; conditions: 168 h, 300 ppm in potato dextrose agar, 25° C., 60% relative humidity, seven days, read-out: control compared to the untreated check (radial growth)
Rhizoctonia solani = Rhizoctonia solani (rice sheath blight/potato black scurf) in vitro test, radial growth on potato dextrose agar; type: cell-based; conditions: 168 h, 300 ppm in potato dextrose agar, 25° C., 60% relative humidity, seven days, read-out: control compared to the untreated check (radial growth)

Row | Compound | pest or weed control at 500 ppm (Phakopsora pachyrhizi) [%] | inhibition of growth at 300 ppm (Pyricularia oryzae) [%] | inhibition of growth at 300 ppm (Alternaria solani) [%] | inhibition of growth at 300 ppm (Rhizoctonia solani) [%]
1 | CCN(C)C=Nc1cc(C)cc(Cc2cccnc2)c1Cl [Compound 66, N′-(2-chloro-5-methyl-3-(pyridin-3-ylmethyl)phenyl)-N-ethyl-N-methylformimidamide] | ≥ 70 | ≥ 70 | ≥ 70 | –
2 | CCN(C)C=Nc1cc(F)cc(Nc2ccccn2)c1C [Compound 95, N-ethyl-N′-(5-fluoro-2-methyl-3-(pyridin-2-ylamino)phenyl)-N-methylformimidamide] | ≥ 70 | – | – | –
3 | CCN(C)C=Nc1cc(F)cc(Nc2ncccn2)c1C [Compound 187, N-ethyl-N′-(5-fluoro-2-methyl-3-(pyrimidin-2-ylamino)phenyl)-N-methylformimidamide] | ≥ 70 | – | – | –
4 | CCN(C)C=Nc1cc(Cl)cc(Nc2ccccc2)c1C [Compound 155, N′-(5-chloro-2-methyl-3-(phenylamino)phenyl)-N-ethyl-N-methylformimidamide] | ≥ 70 | ≥ 70 | ≥ 70 | –
5 | CCN(C)C=Nc1cc(Cl)cc(Cc2cccc(C(F)(F)F)c2)c1C [Compound 127, N′-(5-chloro-2-methyl-3-(3-(trifluoromethyl)benzyl)phenyl)-N-ethyl-N-methylformimidamide] | ≥ 70 | ≥ 70 | ≥ 70 | ≥ 70
6 | CCN(C)C=Nc1cc(C)cc(NC(C)Cc2cnccn2)c1Cl (centres unmarked) [Compound 195, N′-(2-chloro-5-methyl-3-((1-(pyrazin-2-yl)propan-2-yl)amino)phenyl)-N-ethyl-N-methylformimidamide] | ≥ 70 | – | – | –
7 | CCN(C)C=Nc1cc(C)cc(N(C)c2cnccn2)c1Cl [Compound 210, N′-(2-chloro-5-methyl-3-(methyl(pyrazin-2-yl)amino)phenyl)-N-ethyl-N-methylformimidamide] | ≥ 70 | – | – | –
8 | CCN(C)C=Nc1cc(C)cc(Cc2cccc(OC)c2)c1Cl [Compound 28, N′-(2-chloro-3-(3-methoxybenzyl)-5-methylphenyl)-N-ethyl-N-methylformimidamide] | ≥ 70 | ≥ 70 | ≥ 70 | ≥ 70
9 | CCN(C)C=Nc1cc(OC)cc(Cc2ccc(F)c(Cl)c2)c1C [Compound 282, N′-(3-(3-chloro-4-fluorobenzyl)-5-methoxy-2-methylphenyl)-N-ethyl-N-methylformimidamide] | ≥ 70 | – | – | –
10 | CCN(C)C=Nc1cc(Cl)cc(Nc2cnccn2)c1C [Compound 211, N′-(5-chloro-2-methyl-3-(pyrazin-2-ylamino)phenyl)-N-ethyl-N-methylformimidamide] | ≥ 70 | – | – | –
11 | CCN(C)C=Nc1cc(C)cc(NCc2cnc(C)cn2)c1Cl [Compound 196, N′-(2-chloro-5-methyl-3-(((5-methylpyrazin-2-yl)methyl)amino)phenyl)-N-ethyl-N-methylformimidamide] | ≥ 70 | – | – | –
12 | CCN(C)C=Nc1cc(C)cc(Nc2ccccn2)c1Cl [Compound 85, N′-(2-chloro-5-methyl-3-(pyridin-2-ylamino)phenyl)-N-ethyl-N-methylformimidamide] | ≥ 70 | – | ≥ 70 | –
13 | CCN(C)C=Nc1cc(C)cc(Cc2cccc(C(F)(F)F)c2)c1Cl [Compound 53, N′-(2-chloro-5-methyl-3-(3-(trifluoromethyl)benzyl)phenyl)-N-ethyl-N-methylformimidamide] | ≥ 70 | – | ≥ 70 | –
14 | CCN(C)C=Nc1cc(OC)cc(N(C)c2ccccc2OC)c1C [Compound 270, N-ethyl-N′-(5-methoxy-3-((2-methoxyphenyl)(methyl)amino)-2-methylphenyl)-N-methylformimidamide] | ≥ 70 | – | – | –
15 | CCN(C)C=Nc1cc(C)cc(Nc2ncccc2C)c1Cl [Compound 86, N′-(2-chloro-5-methyl-3-((3-methylpyridin-2-yl)amino)phenyl)-N-ethyl-N-methylformimidamide] | ≥ 70 | ≥ 70 | ≥ 70 | –
16 | CCN(C)C=Nc1cc(F)cc(Nc2cnccn2)c1C [Compound 193, N-ethyl-N′-(5-fluoro-2-methyl-3-(pyrazin-2-ylamino)phenyl)-N-methylformimidamide] | ≥ 70 | – | – | –
17 | CCN(C)C=Nc1cc(OC)cc(Cc2cc(F)ccc2C)c1C [Compound 281, N-ethyl-N′-(3-(5-fluoro-2-methylbenzyl)-5-methoxy-2-methylphenyl)-N-methylformimidamide] | ≥ 70 | – | – | –

Row | Compound | pest or weed control at 500 ppm (Phakopsora pachyrhizi) [%] | inhibition of growth at 300 ppm (Pyricularia oryzae) [%] | inhibition of growth at 300 ppm (Alternaria solani) [%] | inhibition of growth at 300 ppm (Rhizoctonia solani) [%]
18 | CCN(C)C=Nc1cc(OC)cc(Cc2ccc(Cl)cc2)c1C [Compound 279, N′-(3-(4-chlorobenzyl)-5-methoxy-2-methylphenyl)-N-ethyl-N-methylformimidamide] | ≥ 70 | – | – | –
19 | CCN(C)C=Nc1cc(C)cc(Cc2ccc(F)c(C(F)(F)F)c2)c1Cl [Compound 218, N′-(2-chloro-3-(4-fluoro-3-(trifluoromethyl)benzyl)-5-methylphenyl)-N-ethyl-N-methylformimidamide] | ≥ 70 | ≥ 70 | ≥ 70 | ≥ 70
20 | CCN(C)C=Nc1cc(F)cc(N(C)c2ncccc2C(F)(F)F)c1C [Compound 153, N-ethyl-N′-(5-fluoro-2-methyl-3-(methyl(3-(trifluoromethyl)pyridin-2-yl)amino)phenyl)-N-methylformimidamide] | ≥ 70 | – | ≥ 70 | –
21 | CCN(C)C=Nc1cc(C)cc(N(C)c2ccc(F)cc2)c1Cl [Compound 69, N′-(2-chloro-3-((4-fluorophenyl)(methyl)amino)-5-methylphenyl)-N-ethyl-N-methylformimidamide] | ≥ 70 | ≥ 70 | ≥ 70 | ≥ 70
22 | CCc1cccc(N(C)c2cc(Cl)cc(N=CN(C)CC)c2C)n1 [Compound 253, N′-(5-chloro-3-((6-ethylpyridin-2-yl)(methyl)amino)-2-methylphenyl)-N-ethyl-N-methylformimidamide] | ≥ 70 | ≥ 70 | ≥ 70 | ≥ 70
23 | CCN(C)C=Nc1cc(F)cc(Cc2ccc(F)c(C(F)(F)F)c2)c1C [Compound 234, N-ethyl-N′-(5-fluoro-3-(4-fluoro-3-(trifluoromethyl)benzyl)-2-methylphenyl)-N-methylformimidamide] | ≥ 70 | ≥ 70 | ≥ 70 | ≥ 70
24 | CCN(C)C=Nc1cc(C)cc(N(C)c2ncccc2C(F)(F)F)c1Cl [Compound 157, N′-(2-chloro-5-methyl-3-(methyl(3-(trifluoromethyl)pyridin-2-yl)amino)phenyl)-N-ethyl-N-methylformimidamide] | ≥ 70 | ≥ 70 | ≥ 70 | –
25 | CCN(C)C=Nc1cc(OC)cc(Cc2cccc(C)c2)c1C [Compound 278, N-ethyl-N′-(5-methoxy-2-methyl-3-(3-methylbenzyl)phenyl)-N-methylformimidamide] | ≥ 70 | – | – | –
26 | CCN(C)C=Nc1cc(C)cc(N(C)c2ncccn2)c1Cl [Compound 192, N′-(2-chloro-5-methyl-3-(methyl(pyrimidin-2-yl)amino)phenyl)-N-ethyl-N-methylformimidamide] | ≥ 70 | – | – | –
27 | CCN(C)C=Nc1cc(C)cc(Nc2cc(C)cc(F)c2)c1Cl [Compound 111, N′-(2-chloro-3-((3-fluoro-5-methylphenyl)amino)-5-methylphenyl)-N-ethyl-N-methylformimidamide] | ≥ 70 | ≥ 70 | – | –
28 | CCN(C)C=Nc1cc(F)cc(Cc2ccccc2C#N)c1C [Compound 168, N′-(3-(2-cyanobenzyl)-5-fluoro-2-methylphenyl)-N-ethyl-N-methylformimidamide] | – | ≥ 70 | ≥ 70 | ≥ 70
29 | CCN(C)C=Nc1cc(F)cc(N(C)c2ccccn2)c1C [Compound 109, N-ethyl-N′-(5-fluoro-2-methyl-3-(methyl(pyridin-2-yl)amino)phenyl)-N-methylformimidamide] | ≥ 70 | – | – | –
30 | CCN(C)C=Nc1cc(OC)cc(N(C)c2ccc(F)c(OC)c2)c1C [Compound 284, N-ethyl-N′-(3-((4-fluoro-3-methoxyphenyl)(methyl)amino)-5-methoxy-2-methylphenyl)-N-methylformimidamide] | ≥ 70 | – | – | –
31 | CCN(C)C=Nc1cc(C)cc(Nc2cnccn2)c1Cl [Compound 194, N′-(2-chloro-5-methyl-3-(pyrazin-2-ylamino)phenyl)-N-ethyl-N-methylformimidamide] | ≥ 70 | – | – | –
32 | CCN(C)C=Nc1cc(C)cc(N(C)c2ccc3c(c2)OCCO3)c1Cl [Compound 184, N′-(2-chloro-3-((2,3-dihydrobenzo[b][1,4]dioxin-6-yl)(methyl)amino)-5-methylphenyl)-N-ethyl-N-methylformimidamide] | ≥ 70 | – | – | –
33 | CCN(C)C=Nc1cc(C)cc(Cc2ccc(F)cc2Br)c1Cl [Compound 215, N′-(3-(2-bromo-4-fluorobenzyl)-2-chloro-5-methylphenyl)-N-ethyl-N-methylformimidamide] | ≥ 70 | – | – | –
34 | CCc1cccc(N(C)c2cc(F)cc(N=CN(C)CC)c2C)n1 [Compound 239, N-ethyl-N′-(3-((6-ethylpyridin-2-yl)(methyl)amino)-5-fluoro-2-methylphenyl)-N-methylformimidamide] | ≥ 70 | – | ≥ 70 | ≥ 70
